Results reported in patent US10874730B2, “Methods for treating brain cancer using il-13r alpha 2 peptide-based compositions” (University of Pittsburgh—Of the Commonwealth System of …, priority 2004, dated 2020).

Columns and labels:
[1] = Toxicity assessment (NCI Common Toxicity Criteria version 3.0), phase I/II trial; format: in vivo, human; conditions: Patient 6, following the 154th injection of poly-ICLC
Excerpt: This study was designed to assess toxicity and the induction of immune and preliminary clinical responses of vaccinations with GAA-loaded αDC1 and administration of poly-ICLC (Hiltonol®, Oncovir, Inc.). The first course of vaccines consisted of 4 ultrasound-guided intranodal (i.n.) administrations of 1 or 3×10^7 αDC1/injections every 2 weeks (FIG. 19) rotating each of inguinal and axillary lymph node clusters to minimize the potential effects of injection-induced trauma in the microenvironment of the lymph nodes by repeating injections in short periods. The first 10 evaluable patients received 1×10^7 αDC1/injection (Dose Level 1), then 9 received 3×10^7 αDC1/injection (Dose Level 2). All patients received intramuscular (i.m.) injections with poly-ICLC (20 μg/kg) twice/week for 8 weeks starting on day 1. […] Starting at Week 13, these patients were treated with the same dose of additional vaccinations every 4 weeks to a maximum of 5 vaccine injections and i.m. poly-ICLC starting on the day of the first additional vaccine and twice/week (1st booster phase).
The trial was monitored continuously for treatment-related AE using National Cancer Institute Common Toxicity Criteria version 3.0. […]

[2] = test system: preclinical brain tumor models; conditions: Zhu et al., J. Transl. Med., 5: 10, 2007; cited from earlier work
[3] = Salazar et al., Neurosurgery, 38: 1096-1103, 1996; cited from earlier work
[4] = solution 2 mg per cc, room temperature; cited from earlier work
[5] = test system: human glioma cells expressing HLA-A2 and EphA2 protein; assay: 4-hr 51Cr-release assay, EphA2883-891-stimulated CD8+ T cells against glioma cells; format: cell-based; conditions: stimulation with peptide-loaded DCs for 10 days, FIG. 9
Description: CD8+ T cells from an HLA-A2+ glioma patients were stimulated with DCs loaded with EphA2883-891 for 10 days. These T cells were then tested for their lytic activity against human glioma cells SNB19 (HLA-A2+, EphA2+) (▴), U251 (HLA-A2+, EphA2+) (▪) and A172 (HLA-A2−, EphA2+) (▾) by 4-hr ^51Cr-release assay.
EphA2 is an attractive tumor-associated antigen and a target for tumor-vaccines, as 5 HLA-A2 and 3 DR4 T cell epitopes have been previously identified (Tatsumi et al., 2003).

human glioma cells SNB19 = assay: 4-hr 51Cr-release assay, peptide-induced CTL lines against glioma cells; format: cell-based; conditions: for lysis of SNB19 in comparison to the native IL-13Rα2345-353 peptide: each E/T ratio, FIG. 3; for anti-SNB19 glioma cell lytic activities on addition of cold T2 cells pulsed IL-13Rα2345-353: cold target competition, FIG. 4
Description: CD8+ cells derived from an HLA-A2+ glioma patient were stimulated with native IL-13Rα2345-353 (●), IL-13Rα2-V9 (∘), IL-13Rα2-A1V9 (Δ), or IL-13Rα2-E1V9 (X). On day 10, the cells were tested for lytic ability against human glioma cells SNB19 (A) and U-251 (B) (both are IL-13Rα+/HLA-A2+) using 4-Hr ^51 Cr-release assay.
The CTL lines induced with each peptide (control (A); Flu (B); IL-13Rα2345-353 (C); IL-13Rα2345-9V (D)) were incubated for 4 h with ^51Cr-labeled human glioma cell lines SNB19 at the indicated E:T ratios for evaluation of specific lytic ability (●). For the cold target inhibition assay, ^51Cr-labeled target SNB19 cells (1×10^3 cells/well) and cold T2 cells (1×10^4 cells/well) pulsed with (Δ) or without (∘) peptide IL-13Rα2345-353 were incubated with the CTLs.
The CTL lines induced with each peptide (control (A); Flu (B); IL-13Rα2345-353 (C); IL-13Rα2345-9V (D)) were incubated for 4 h with ^51Cr-labeled human glioma cell line SNB19 at the indicated E:T ratios for evaluation of specific lytic ability (●). Anti-HLA-A2 antibody (W6/32; 10 μg/ml) was added to block the function of HLA-A2 mediated recognition by the T cells (a).
(§1) The ability of modified peptides, such as IL-13Rα2-V9, to enhance the CTL activity against HLA-A2+ human glioma cells that endogenously expressed and presented IL-13Rα2-derived epitopes was examined. Human glioma cell lines U251 and SNB19 express HLA-A2 and IL-13Rα2, whereas human glioma cell line A172 expresses IL-13Rα2 but not HLA-A2 (Okano et al., 2002).
(§2) The lytic ability of the peptide-induced CTL lines against these glioma cells was examined using 4-hr ^51Cr-release assays.
To determine the specificity of the lytic activity, cold target competition experiments were performed by addition of non-radiolabeled (cold) T2 cells pulsed with IL-13Rα2345-353 peptide in the 4-h ^51Cr-release assay (FIG. 4).
Furthermore, anti-HLA-A2 antibody (W6/32) was used to block the HLA-A2 mediated signaling in the CTL reactivity.

HLA-A2 = target: T1, HLA-A2 (Homo sapiens, UniProt P04439, D140Y/D185E/D98H/E176V/E277Q/G131W/G231S/I119V/I121R/I166T/I218V/L300P/L318F/N151K/N90K/P208A/P217A/Q86G/Q94H/R138H/R169H/T345S); assay: HLA-A2 binding: surface expression of HLA-A2 on T2 cells by flow cytometry; conditions: 1 nM
T1 construct: expressed in transfected cells; host or cells: T2 cells
Description: The binding capability of these modified peptides was assessed using an HLA-A2 transfected T2 cell line. Aliquots of T2 cells were incubated with modified peptides or IL-13Rα2345-353 at 1 nM overnight, and then examined for the surface expression levels of HLA-A2 on T2 cells by flow cytometry. Since stable binding of HLA-A2 with peptide epitopes further stabilizes the surface expression of HLA-A2 (Francini et al., 2002; Alves et al., 2003), quantitative expression levels of HLA-A2, which is indicated by Mean Fluorescence Intensity (MFI) in Table 1, correlate with the binding affinity of the peptide-epitopes that are co-incubated with the T2 cells.

EL4-HHD-IL-13Rα2 cells = assay: Immunization of HHD mice, spleen cell cytotoxicity (4 hr 51Cr-release); format: in vivo; conditions: for specific CTL activity against EL4-HHD-IL-13Rα2 cells: 100 μg peptide s.c. in IFA with HBVcore128-140, FIG. 7; for magnitude of CTL activities in comparison to native IL-13Rα2345-353 against EL4-HHD-IL-13Rα2 cells: p<0.05 at all effector/target ratios
Description: (§3) Control animals received IFA containing HBV helper-peptide only. Eleven days after the last immunization, the animals were sacrificed, and 5×10^6 spleen cells (SPCs) were stimulated in vitro with the same peptide that was used for in vivo stimulation (10 μM). On day 6 of culture, the bulk populations were tested for specific cytotoxicity against the EL4-HHD cells expressing IL-13Rα2 or EL4-HHD pulsed with IL-13 Rα2345-353.
(§4) EL4-HHD-IL-13Rα2 and EL4-HHD were labeled with 100 μCi of ^51Cr for 60 min, plated in 96-well V-bottomed plates (3×10^3 cell/well). Labeled EL4-HHD were pulsed with IL-13Rα2345-353 (1 μM) at 37° C. for 2 h. Control target cells were pulsed with no peptides. Stimulated SPCs were then added as effector cells and incubated at 37° C. for 4 h. One hundred μl of supernatant were collected and radioactivity measured in a gamma counter.

human glioma cells U-251 = assay: 4-hr 51Cr-release assay, peptide-induced CTL lines against glioma cells; format: cell-based; conditions: each E/T ratio, FIG. 3
Description: CD8+ cells derived from an HLA-A2+ glioma patient were stimulated with native IL-13Rα2345-353 (●), IL-13Rα2-V9 (∘), IL-13Rα2-A1V9 (Δ), or IL-13Rα2-E1V9 (X). On day 10, the cells were tested for lytic ability against human glioma cells SNB19 (A) and U-251 (B) (both are IL-13Rα+/HLA-A2+) using 4-Hr ^51 Cr-release assay. Against SNB19 glioma cells, p<0.05 at all E/T ratios for IL-13Rα2-V9 vs. native IL-13Rα2345-353 as well as IL-13Rα2-A1V9 vs. native IL-13Rα2345-353 by two-tailed Student-t tests. Against U251 glioma cells, p<0.05 at E/T ratio of 10 and 40 for IL-13Rα2-V9 vs. native IL-13Rα2345-353 as well as IL-13Rα2-A1V9 vs. native IL-13Rα2345-353 by two-tailed Student-t tests. […] The data presented represent one of three experiments with different donors with similar results.
as §1, §2

[6] = test system: T2 cells loaded with the wild type IL-13Rα2345-353; assay: 4-hr 51Cr-release assay, peptide-induced CTL lines against peptide-loaded T2 cells; format: cell-based, human; conditions: for lysis of T2 target cells pulsed with 100 ng/ml wild type IL-13Rα2345-353 by peptide-stimulated T cells: CD8+ T cells of HLA-A*0201+ glioma patients stimulated with peptide-pulsed DCs, day 10, FIG. 1; for magnitude of CTL reactivity against T2 cells loaded with native IL-13Rα2345-353 compared with native or IL-13Rα2-E1V9: E/T ratio 12.5, P<0.01 vs native at 0.1 and 1 nM, FIG. 1
gp100 = assay: IFN-γ ELISPOT on patient PBMC, phase I/II trial; format: in vivo, human; conditions: both dose levels combined, Wilcoxon test
Excerpt: This study was designed to assess toxicity and the induction of immune and preliminary clinical responses of vaccinations with GAA-loaded αDC1 and administration of poly-ICLC (Hiltonol®, Oncovir, Inc.). The first course of vaccines consisted of 4 ultrasound-guided intranodal (i.n.) administrations of 1 or 3×10^7 αDC1/injections every 2 weeks (FIG. 19) rotating each of inguinal and axillary lymph node clusters to minimize the potential effects of injection-induced trauma in the microenvironment of the lymph nodes by repeating injections in short periods. The first 10 evaluable patients received 1×10^7 αDC1/injection (Dose Level 1), then 9 received 3×10^7 αDC1/injection (Dose Level 2). All patients received intramuscular (i.m.) injections with poly-ICLC (20 μg/kg) twice/week for 8 weeks starting on day 1. […]
Enzyme-linked immunosorbent spot (ELISPOT) assays were performed as described previously (see, e.g., Kirkwood et al, Clin. Cancer Res., 15:1443-1451, 2009) with slight modifications. Briefly, batched PBMC samples were evaluated simultaneously following in vitro stimulation with autologous, irradiated PBMC loaded with wild-type IL-13Rα345-353, EphA2883-891, GP100209-217 and YKL-40202-211 for a week. […]

[7] = test system: EL4-HHD cells pulsed with the native IL-13Rα2345-353; assay: Immunization of HHD mice, spleen cell cytotoxicity (4 hr 51Cr-release); format: in vivo; conditions: 100 μg peptide s.c. in IFA with HBVcore128-140; difference not statistically significant; FIG. 6
Description: as §3, §4

Substance	lysis of SNB19 in comparison to the native IL-13Rα2345-353 peptide (human glioma cells SNB19)	binding affinity to HLA-A2 compared with the native IL-13Rα2345-353 (HLA-A2)	specific CTL activity against EL4-HHD-IL-13Rα2 cells (EL4-HHD-IL-13Rα2 cells)	magnitude of CTL activities in comparison to native IL-13Rα2345-353 against EL4-HHD-IL-13Rα2 cells (EL4-HHD-IL-13Rα2 cells)	lysis of U-251 in comparison to the native IL-13Rα2345-353 peptide (human glioma cells U-251)	lysis of T2 target cells pulsed with 100 ng/ml wild type IL-13Rα2345-353 by peptide-stimulated T cells [6]	magnitude of CTL reactivity against T2 cells loaded with native IL-13Rα2345-353 compared with native or IL-13Rα2-E1V9 [6]	anti-SNB19 glioma cell lytic activities on addition of cold T2 cells pulsed IL-13Rα2345-353 (human glioma cells SNB19)	also measured
Polyinosinic-Polycytidylic acid stabilized with polylysine and carboxymethylcellulose [poly-ICLC]									adverse event during the 2nd booster phase considered to be DLT [1]: grade 2 systemic urticaria; effect on vaccine effects [2]: enhance the vaccine effects; safety [3]: safe; stability [4]: stable at room temperature for several days
TLADFDPRV (Amino acid residues 883-891 of EphA2) [EphA2883-891]									anti-glioma CTL reactivity of CD8+ cells from HLA-A2+ glioma patients [5]: anti-glioma CTL reactivity has been induced
ALPFGFILV (Amino acid residues 345-353 of Interleukin-13 Receptor alpha with mutation of W to A at position 345 and I to V at position 353) [A1V9]	higher levels of lysis	higher	induced a specific CTL activity	higher magnitude	higher levels of lysis	efficiently lysed	higher magnitude		
WLPFGFILI (Amino acid residues 345-353 of Interleukin-13 Receptor alpha) [Native, reference compound]			induced a specific CTL activity			efficiently lysed		almost completely inhibited	
IMDQVPFSV (Amino acid residues 209-217 of GP100 with mutation of T to M at position 210) [gp100 epitope]									magnitude of IFN-γ ELISPOT response among the GAA peptides tested (gp100): highest magnitude of response
WLPFGFILV (Amino acid residues 345-353 of Interleukin-13 Receptor alpha 2 with mutation of I to V at position 353) [V9, I was replaced with V at P9]	higher levels of lysis	higher	induced a specific CTL activity	higher magnitude	higher levels of lysis	efficiently lysed	higher magnitude	almost completely inhibited	CTL reactivity against EL4-HHD cells pulsed with the native peptide compared with other peptides examined [7]: trend toward higher levels of CTL reactivity; CTL activities against T2 cells loaded with IL-13Rα2345-353 compared with the wild type-induced CTL line ([6]; 1, 10 and 100 nM peptide, E/T ratio=50, FIG. 2): higher CTL activities; antigen-specific CTL response in comparison to the wild type IL-13Rα2345-353 ([6]; E/T ratio of 50, 25 and 12.5): significantly higher level
